{"source": "patent US10144929B2", "about": "“Polypeptide inhibitors of Smad3 polypeptide activities” (Mayo Foundation for Medical Education and Research, priority 2016, dated 2018)", "key": {"[1]": {"test_system": "Normal human lung fibroblasts (NHLF) or lung fibroblasts from idiopathic pulmonary fibrosis (IPF) patients", "test": "Profibrotic responses in human lung fibroblasts (F-actin, Western, qPCR)", "type": "cell-based", "conditions": "TGFβ 5 ng/mL 24 hours", "method": "FIGS. 11A-C. TAT-SH3-2 inhibits profibrotic responses in human lung fibroblasts. (A) Normal human lung fibroblasts (NHLF) or lung fibroblasts from idiopathic pulmonary fibrosis (IPF) patients were transduced with the indicated TAT polypeptide. TGFβ (5 ng/mL) or SB431542 (10 μM) was then added for an additional 24 hours. Images were obtained on a LSM510 confocal microscope following F-actin labeling with phalloidin-TRITC and DAPI nuclei staining. Scale bar: 10 μm. (B) Western analysis for the indicated polypeptides (α-SMA, alpha smooth muscle actin; CTGF, connective tissue growth factor; and GAPDH, glyceraldehyde phosphate dehydrogenase) subsequent to TAT polypeptide transduction and 24 hour treatment in the absence (−) or presence (+) of TGFβ (5 ng/mL) or SB431542 (10 μM). (C) NHLF or IPF fibroblasts were treated as in (A), and qPCR was performed as described herein. Results represent mean±SEM from three independent experiments. *P<0.05, **P<0.005, *** P<0.001.\nNormal human lung fibroblasts (NHLF) or lung fibroblasts from idiopathic pulmonary fibrosis (IPF) patients were transduced with the indicated TAT polypeptide. TGFβ (5 ng/mL) or SB431542 (10 μM) was then added for an additional 24 hours. Images were obtained on a LSM510 confocal microscope following F-actin labeling with phalloidin-TRITC and DAPI nuclei staining. […]"}, "pSmad3": {"target": "T1, pSmad3 (Mus musculus, UniProt Q8BUN5)", "T1 construct": "endogenous in cells; host or cells: AKR-2B cells", "T1 sequence (Q8BUN5 whole entry, the tested form may be a part)": "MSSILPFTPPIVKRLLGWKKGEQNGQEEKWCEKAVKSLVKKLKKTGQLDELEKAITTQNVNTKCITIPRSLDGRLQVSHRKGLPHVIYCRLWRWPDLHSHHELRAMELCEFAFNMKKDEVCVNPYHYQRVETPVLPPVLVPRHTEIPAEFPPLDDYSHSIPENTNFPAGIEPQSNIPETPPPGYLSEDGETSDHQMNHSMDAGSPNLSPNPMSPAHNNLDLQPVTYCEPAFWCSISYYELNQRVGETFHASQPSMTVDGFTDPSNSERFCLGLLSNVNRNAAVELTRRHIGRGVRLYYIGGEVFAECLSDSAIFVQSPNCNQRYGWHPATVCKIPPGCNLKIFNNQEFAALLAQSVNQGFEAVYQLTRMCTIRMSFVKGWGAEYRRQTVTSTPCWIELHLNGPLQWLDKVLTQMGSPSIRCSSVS", "test": "Nuclear import of pSmad3 (nuclear fractions Western, immunofluorescence) in AKR-2B cells", "type": "cell-based", "conditions": "90 minutes transduction, TGFβ 5 ng/mL 1 hour", "method": "FIGS. 1A-C. SH3 domain of sorting nexin 9 (SNX9) specifically binds pSmad3 and prevents nuclear import. (A) Cartoon depicting domains in full length (FL) SNX9 and constructs used for GST pull down assays. Lysates from AKR-2B cells untreated (−) or stimulated (+) for 45 minutes with 5 ng/mL TGFβ were incubated with GST beads or the indicated fusion polypeptides immobilized on GST beads. Bound polypeptides were eluted and assessed by Western analysis for pSmad3 or pSmad2. Cell lysate reflects signal obtained from 10 μg total protein. (B) AKR-2B cells were transduced for 90 minutes with the indicated concentrations of the TAT-SNX9(SH3) fusion polypeptides. […] Quantitation of nuclear pSmads was performed with Image J software and represents the mean+/−sd of two experiments (Right). […] Quantitation of nuclear Smad3 from 30 cells in each of two experiments (Right).\nFIGS. 3A-E. Inhibition of Smad3 signaling by a defined region of the SH3 domain in SNX9. […] (B) Nuclear fractions were prepared and assessed as in FIG. 1B following transduction with the indicated TAT-SNX9(SH3) fusion polypeptide (Left). Quantitation (mean+/−sd) of nuclear pSmad2 or pSmad3 from 2 experiments (Right). (C) Immunofluorescence of nuclear Smad3 was determined as in FIG. 1C from 30 cells in each of two experiments in the absence (−) or presence (+) of 5 ng/mL TGFβ and the indicated TAT-SNX9(SH3) fusion polypeptide (1.5 μM). […]"}}}
{"substance": "TAT-SH3-2: TAT-SNX9(SH3) fusion polypeptide having SNX9 amino acids 21-51 (31 mer) (TVNEGEIITITNPDVGGGWLEGRNIKGERGL; left off: small tags and cut ends)", "values": [{"measurement": "profibrotic responses in human lung fibroblasts", "setting": "[1]", "result": "inhibited profibrotic responses"}, {"measurement": "nuclear import of pSmad3", "setting": "pSmad3", "result": "specifically prevented pSmad3 nuclear import"}]}
